Legend:
Format in all cases: functional
Mus musculus [1] = species on record: Mus musculus; test: Effect on the proliferation of murine spleen cells evaluated in terms of [3H]TdR uptake into the cells at a concentration of 1 ng/mL
Mus musculus [2] = species on record: Mus musculus; test: Effect on the proliferation of murine spleen cells evaluated in terms of [3H]TdR uptake into the cells at a concentration of 100 ng/mL
Mus musculus [3] = species on record: Mus musculus; test: Effect on the proliferation of murine spleen cells evaluated in terms of [3H]TdR uptake into the cells at a concentration of 10 ng/mL

CCCCCCCCCCCCCCC[C@@H](O)[C@H](CO[C@H]1O[C@@H](CO)[C@H](O)[C@H](O)[C@@H]1O)NC(=O)CCCCCCCCCCCCC
3H-TdR incorpolation (Mus musculus [1]): 9018 c.p.m. | 3H-TdR incorpolation (Mus musculus [2]): 44395 c.p.m. | 3H-TdR incorpolation (Mus musculus [3]): 44395 c.p.m.

CCCCCCCCCCCCCCCCCCCCCC[C@@H](O)C(=O)N[C@@H](CO[C@H]1O[C@@H](CO)[C@H](O)[C@H](O)[C@@H]1O)[C@H](O)CCCCCCCCCCCCCCC
3H-TdR incorpolation (Mus musculus [1]): 9454 c.p.m. | 3H-TdR incorpolation (Mus musculus [2]): 45966 c.p.m. | 3H-TdR incorpolation (Mus musculus [3]): 20283 c.p.m.

CCCCCCCCCCCCCCC[C@@H](O[C@H]1O[C@@H](CO)[C@H](O)[C@H](O)[C@@H]1O)[C@H](CO)NC(=O)CCCCCCCCCCCCC
3H-TdR incorpolation (Mus musculus [1]): 7722 c.p.m. | 3H-TdR incorpolation (Mus musculus [2]): 6141 c.p.m. | 3H-TdR incorpolation (Mus musculus [3]): 7412 c.p.m.

CCCCCCCCCCCCCCCCCCCCCC[C@@H](O)C(=O)N[C@@H](CO[C@H]1O[C@@H](CO)[C@H](O)[C@H](O)[C@@H]1O)[C@@H](CCCCCCCCCCCCCCC)O[C@@H]1O[C@@H](CO)[C@H](O)[C@H](O)[C@@H]1O
3H-TdR incorpolation (Mus musculus [1]): 7892 c.p.m. | 3H-TdR incorpolation (Mus musculus [2]): 45036 c.p.m. | 3H-TdR incorpolation (Mus musculus [3]): 13195 c.p.m.

CCCCCCCCCCCCCCCCCCCCCC[C@@H](O)C(=O)N[C@@H](CO[C@H]1O[C@@H](CO)[C@H](O)[C@H](O)[C@@H]1O)[C@@H](CCCCCCCCCCCCCCC)O[C@H]1O[C@@H](CO)[C@H](O)[C@H](O)[C@@H]1O
3H-TdR incorpolation (Mus musculus [1]): 16138 c.p.m. | 3H-TdR incorpolation (Mus musculus [2]): 44867 c.p.m. | 3H-TdR incorpolation (Mus musculus [3]): 34892 c.p.m.
